Assay results: patent US9113629B2, “4-amino-6-(4-substituted-phenyl)-picolinates and 6-amino-2-(4-substituted-phenyl)-pyrimidine-4-carboxylates and their use as herbicides” (DOW AGROSCIENCES LLC, priority 2013, dated 2015)
Read-outs that look alike come from different tables or passages of the source.

Key:
[1] = tested on: Key Grass and Sedge Weeds as well as Grass Crops; assay: Post-emergent Test II herbicidal activity (Table 6); assay type: in vivo; conditions: post-emergence, 336 h; for pest or weed control at 70 g/ha: 70 g ai/ha; for pest or weed control at 140 g/ha: 140 g ai/ha
Method in brief: (§1)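 Test species were raised 7–21 d under greenhouse conditions until reaching the first or second true leaf, sprayed with formulated compound at 187 L/ha, and kept subirrigated to avoid wash-off. Fourteen days later, damage was rated visually on a 0–100% scale against untreated plants.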

[2] = tested on: Key Broadleaf Weed and Crop Species; assay: Post-emergent Test II herbicidal activity (Table 5); assay type: in vivo; conditions: post-emergence, 336 h, 14 days after application; for pest or weed control at 70 g/ha: application rate 70 g ai/ha; for pest or weed control at 140 g/ha: application rate 140 g ai/ha
Method in brief: as §1

[3] = CYPES: yellow nutsedge (Cyperus esculentus), read-out: Visual Growth Reduction (%) 14 Days After Application, CYPES
[4] = DIGSA: crabgrass (Digitaria sanguinalis), read-out: Visual Growth Reduction (%) 14 Days After Application, DIGSA
[5] = ECHCG: barnyardgrass (Echinochloa crus-galli), read-out: Visual Growth Reduction (%) 14 Days After Application, ECHCG
[6] = ORYSA: rice (Oryza sativa), crop, read-out: Visual Growth Reduction (%) 14 Days After Application, ORYSA
[7] = SETFA: giant foxtail (Setaria faberi), read-out: Visual Growth Reduction (%) 14 Days After Application, SETFA
[8] = SORVU: grain sorghum (Sorghum vulgare), read-out: Visual Growth Reduction (%) 14 Days After Application, SORVU
[9] = TRZSS (wheat, Triticum aestivum), crop, read-out: Visual Growth Reduction (%) 14 Days After Application, TRZSS
[10] = ZEAMX: maize, corn (Zea mays), crop, read-out: Visual Growth Reduction (%) 14 Days After Application, ZEAMX
[11] = ABUTH: velvetleaf (Abutilon theophrasti), read-out: Visual Growth Reduction (%) 14 Days After Application, ABUTH
[12] = AMARE: redroot pigweed (Amaranthus retroflexus), read-out: Visual Growth Reduction (%) 14 Days After Application, AMARE
[13] = BRSNN: oilseed-rape, canola (Brassica napus), read-out: Visual Growth Reduction (%) 14 Days After Application, BRSNN
[14] = CHEAL: lambsquarters (Chenopodium album), read-out: Visual Growth Reduction (%) 14 Days After Application, CHEAL
[15] = EPHHL: wild poinsettia (Euphorbia heterophylla), read-out: Visual Growth Reduction (%) 14 Days After Application, EPHHL
[16] = HELAN: sunflower (Helianthus annuus), read-out: Visual Growth Reduction (%) 14 Days After Application, HELAN
[17] = VIOTR: wild pansy (Viola tricolor), read-out: Visual Growth Reduction (%) 14 Days After Application, VIOTR

SMILES | pest or weed control at 70 g/ha [1, 3] | pest or weed control at 140 g/ha [1, 3] | pest or weed control at 70 g/ha [1, 4] | pest or weed control at 140 g/ha [1, 4] | pest or weed control at 140 g/ha [1, 5] | pest or weed control at 70 g/ha [1, 6] | pest or weed control at 140 g/ha [1, 6] | pest or weed control at 70 g/ha [1, 7] | pest or weed control at 140 g/ha [1, 7] | pest or weed control at 70 g/ha [1, 8] | pest or weed control at 140 g/ha [1, 8] | pest or weed control at 70 g/ha [1, 9] | pest or weed control at 140 g/ha [1, 9] | pest or weed control at 70 g/ha [1, 10] | pest or weed control at 140 g/ha [1, 10] | melting point | pest or weed control at 70 g/ha [2, 11] | pest or weed control at 140 g/ha [2, 11] | pest or weed control at 70 g/ha [2, 12] | pest or weed control at 140 g/ha [2, 12] | other results
COC(=O)c1nc(-c2ccc(C(F)(F)F)c(F)c2F)c(F)c(N)c1Cl [Compound 149] | 95 to 100% | 95 to 100% | 30 to 44% | 30 to 44% | 95 to 100% | 0 to 29% | 0 to 29% | 30 to 44% | 30 to 44% | 95 to 100% | 95 to 100% | 30 to 44% | 45 to 59% | 75 to 84% | 85 to 94% | 131 to 132 °C | 95 to 100% | 95 to 100% | 95 to 100% | 95 to 100% | pest or weed control at 70 g/ha [1, 5]: 95 to 100%; pest or weed control at 70 g/ha [2, 13]: 85 to 94%; pest or weed control at 140 g/ha [2, 13]: 95 to 100%; pest or weed control at 70 g/ha [2, 14]: 95 to 100%; pest or weed control at 140 g/ha [2, 14]: 95 to 100%; pest or weed control at 70 g/ha [2, 15]: 95 to 100%; pest or weed control at 140 g/ha [2, 15]: 95 to 100%; pest or weed control at 70 g/ha [2, 16]: 95 to 100%; pest or weed control at 140 g/ha [2, 16]: 95 to 100%; pest or weed control at 70 g/ha [2, 17]: 85 to 94%; pest or weed control at 140 g/ha [2, 17]: 85 to 94%
COC(=O)c1nc(-c2ccc(OC(F)F)c(F)c2)c(F)c(N)c1Cl [Compound 152] | 60 to 74% | 95 to 100% | 45 to 59% | 75 to 84% | 85 to 94% | 0 to 29% | 0 to 29% | 0 to 29% | 45 to 59% | 45 to 59% | 45 to 59% | 0 to 29% | 0 to 29% | 95 to 100% | 95 to 100% | 112 to 114 °C | 85 to 94% | 85 to 94% | 85 to 94% | 85 to 94% | pest or weed control at 70 g/ha [2, 13]: 85 to 94%; pest or weed control at 140 g/ha [2, 13]: 85 to 94%; pest or weed control at 70 g/ha [2, 14]: 85 to 94%; pest or weed control at 140 g/ha [2, 14]: 85 to 94%; pest or weed control at 70 g/ha [2, 15]: 95 to 100%; pest or weed control at 140 g/ha [2, 15]: 95 to 100%; pest or weed control at 70 g/ha [2, 16]: 75 to 84%; pest or weed control at 140 g/ha [2, 16]: 85 to 94%; pest or weed control at 70 g/ha [2, 17]: 0 to 29%; pest or weed control at 140 g/ha [2, 17]: 0 to 29%
